Molecular target: T1, human WDR5 (residues 24–334) (Homo sapiens, UniProt P61964)
T1 construct: human WDR5 seven tandem WD-40 domain (residues 24–334); GST (N, cleaved yes); made in house; host or cells: Escherichia coli BL21 (DE3)
Assay: ITC assay of Kif2A peptides titrated into WDR5
Settings: wild-type WDR5 0.05 mM, peptide approx. 1 mM, 20 mM Tris-HCl, 200 mM NaCl, pH 7.5, 20°C, mean±SD of a minimum of two experiments, N.D. = not detectable binding
From the text: The DNA fragment encoding the human WDR5 seven tandem WD-40 domain (residues 24–334) was amplified via PCR from the human brain and bone marrow cDNA library and cloned and inserted into the pGEX-4T1 vector, which was modified to include an N-terminal GST tag and a TEV cleavage site (ENLYFQ/GSHM) (where ‘/’ denotes the cleavage site). The Y191F variant of WDR5 was generated using a MutanBEST kit (TaKaRa, Dalian, China) and verified via DNA sequencing. Proteins were expressed in Escherichia coli BL21 (DE3) cells (Novagen, Darmstadt, Germany) cultured in Luria-Bertani medium at 37°C. Protein expression was induced with 0.2 mM isopropyl β-D-1-thiogalactopyranoside (IPTG) once the optical density at 600 nm (OD600) reached 0.8, and the cultures were shifted to 16°C for incubation for 18 h. The cells were harvested by centrifugation and resuspended in Buffer A (20 mM Tris-HCl, 1 M NaCl, pH 8.0) supplemented with DNase I (10 U) and cOmplete, EDTA-free Protease Inhibitor Cocktail (1 tablet dissolved in 1 mL of sterile water), after which they were lysed by ultrasonication. […]
ITC assays were performed on a Microcal PEAQ-ITC instrument (Malvern Panalytical, Westborough, USA) at 20°C as previously described. Protein concentrations were quantified by measuring the absorbance at 280 nm and diluted to 0.05 mM with Buffer E. Peptides were prepared at approximately 1 mM in the same buffer. […]

Sequence: GSAAARPSQ [Kif2A ^R117A, Kif2A 114–122 peptide with R117A mutation, …]
- KD, dissociation constant: completely abolished binding
